Patent US20070128217A1 (priority 2003, published 2007)

Key:
[1] = test system: antibodies in sera from SARS patients (sera 1a, 1b, 2, 6, 37, 62, London, SARS-yellow, SARS-green); format: binding, human; set-up: Binding of serum 6 to linear peptides of protein X1 of SARS-CoV Urbani / Binding of serum 37 to linear peptides of protein X1 of SARS-CoV Urbani / Binding of serum 6 to looped/cyclic peptide (PEPSCAN-ELISA) / Binding of serum 37 to looped/cyclic peptide (PEPSCAN-ELISA) / Binding of serum 37 to looped/cyclic peptides of protein X1 of SARS-CoV Urbani / Binding of serum 6 to linear peptides of protein X2 / Binding of serum 37 to linear peptides of protein X2 / Binding of serum 37 to looped/cyclic peptides of protein X2 of SARS-CoV Urbani / Binding of serum 6 to linear peptides of protein M of SARS-CoV Urbani / Binding of serum 37 to linear peptides of protein M of SARS-CoV Urbani / Binding of serum 6 to looped/cyclic peptides of protein M of SARS-CoV Urbani / Binding of serum 37 to looped/cyclic peptides of protein M of SARS-CoV Urbani / Binding of serum 6 to linear peptides of protein X3 of SARS-CoV Urbani / Binding of serum 37 to linear peptides of protein X3 of SARS-CoV Urbani / Binding of serum 37 to looped/cyclic peptides of protein X3 of SARS-CoV Urbani / Binding of serum 6 to linear peptides of protein X4 of SARS-CoV Urbani / Binding of serum 37 to linear peptides of protein X4 of SARS-CoV Urbani / Binding of serum 37 to looped/cyclic peptides of protein X4 of SARS-CoV Urbani / Binding of serum 6 to linear peptides of protein X5 of SARS-CoV Urbani / Binding of serum 37 to linear peptides of protein X5 of SARS-CoV Urbani / Binding of serum 37 to looped/cyclic peptides of protein X5 of SARS-CoV Urbani / Binding of serum 6 to linear peptides of protein N of SARS-CoV Urbani / Binding of serum 37 to linear peptides of protein N of SARS-CoV Urbani / Binding of serum 6 to linear peptide (PEPSCAN-ELISA) / Binding of serum 1a to looped/cyclic peptides of protein N of SARS-CoV Urbani / Binding of serum 1b to looped/cyclic peptides of protein N of SARS-CoV Urbani / Binding of serum 2 to looped/cyclic peptides of protein N of SARS-CoV Urbani / Binding of serum 6 to looped/cyclic peptides of protein N of SARS-CoV Urbani / Binding of serum 37 to looped/cyclic peptides of protein N of SARS-CoV Urbani / Binding of serum 62 to looped/cyclic peptides of protein N of SARS-CoV Urbani / Binding of serum London to looped/cyclic peptides of protein N of SARS-CoV Urbani / Binding of serum SARS-green to looped/cyclic peptides of protein N of SARS-CoV Urbani: unit not given here
[2] = test system: control sera (pooled serum of ten healthy LUMC hospital workers; commercial negative donor pooled serum from the Dutch bloodbank); format: binding, human; set-up: Binding of Control serum LUMC to linear peptides / Binding of Control serum Blood-bank to linear peptides / Binding of Control serum LUMC to looped peptides / Binding of Control Serum Blood-Bank to Looped peptides / Binding of Control serum LUMC to linear peptides of the protein M of SARS-CoV Urbani / Binding of Control serum Blood-bank to linear peptides of the protein M of SARS-CoV Urbani / Binding of Control serum LUMC to looped peptides of the protein M of SARS-CoV Urbani / Binding of Control Serum Blood-Bank to Looped peptides of the protein M of SARS-CoV Urbani: unit not given here
[3] = test system: rabbit serum obtained by immunizing a rabbit with the SARS-CoV strain Frankfurt 1; format: binding; set-up: Binding of a rabbit serum to linear peptides / Binding of a rabbit serum to looped peptides / Rabbit serum linear peptides / Rabbit serum looped peptides / Binding of a rabbit serum to linear peptides of protein N of SARS-CoV Urbani (Rabbit serum linear peptides) / Binding of a rabbit serum to looped/cyclic peptides of protein N of SARS-CoV Urbani (Rabbit serum looped peptides): unit not given here

Sequence: PYNSVTDTIVVTEGD
- Binding of serum 1a to linear peptides of protein X1 of SARS-CoV Urbani [1]: 0.5
- Binding of serum 1a to looped/cyclic peptides of protein X1 of SARS-CoV Urbani [1]: 0.4
- Binding of serum 1b to linear peptides of protein X1 of SARS-CoV Urbani [1]: 0.4
- Binding of serum 1b to looped/cyclic peptides of protein X1 of SARS-CoV Urbani [1]: 0.3
- Binding of serum 2 to linear peptides of protein X1 of SARS-CoV Urbani [1]: 0.4
- Binding of serum 2 to looped/cyclic peptides of protein X1 of SARS-CoV Urbani [1]: 0.3
- Binding of serum 6 to linear peptides of protein X1 of SARS-CoV Urbani [1]: 0.4
- Binding of serum 6 to looped/cyclic peptides of protein X1 of SARS-CoV Urbani [1]: 0.1
- Binding of serum 37 to linear peptides of protein X1 of SARS-CoV Urbani [1]: 0.5
- Binding of serum 37 to looped/cyclic peptides of protein X1 of SARS-CoV Urbani [1]: 0.3
- Binding of serum 62 to linear peptides of protein X1 of SARS-CoV Urbani [1]: 0.4
- Binding of serum 62 to looped/cyclic peptides of protein X1 of SARS-CoV Urbani [1]: 0.3
- Binding of serum London to linear peptides of protein X1 of SARS-CoV Urbani [1]: 0.2
- Binding of serum London to looped/cyclic peptides of protein X1 of SARS-CoV Urbani [1]: 0.2
- Binding of serum SARS-green to linear peptides of protein X1 of SARS-CoV Urbani [1]: 0.2
- Binding of serum SARS-green to looped/cyclic peptides of protein X1 of SARS-CoV Urbani [1]: 0.5
- Binding of serum SARS-yellow to linear peptides of protein X1 of SARS-CoV Urbani [1]: 0.3
- Binding of serum SARS-yellow to looped/cyclic peptides of protein X1 of SARS-CoV Urbani [1]: 0.4
- Binding of Control Serum Blood-Bank to Looped peptides [2]: 0.4
- Binding of Control serum Blood-bank to linear peptides [2]: 0.4
- Binding of Control serum LUMC to linear peptides [2]: 0.3
- Binding of Control serum LUMC to looped peptides [2]: 0.4
- Binding of a rabbit serum to linear peptides [3]: 0.1
- Binding of a rabbit serum to looped peptides [3]: 0.3

Sequence: CWLCWKCKSKNPLLY
- Binding of serum 1a to looped/cyclic peptide (PEPSCAN-ELISA) [1]: 0.7
- Binding of serum 1b to looped/cyclic peptide (PEPSCAN-ELISA) [1]: 0.4
- Binding of serum 2 to looped/cyclic peptide (PEPSCAN-ELISA) [1]: 0.5
- Binding of serum 6 to looped/cyclic peptide (PEPSCAN-ELISA) [1]: 0.7
- Binding of serum 37 to looped/cyclic peptide (PEPSCAN-ELISA) [1]: 0.7
- Binding of serum 62 to looped/cyclic peptide (PEPSCAN-ELISA) [1]: 0.7
- Binding of serum London to looped/cyclic peptide (PEPSCAN-ELISA) [1]: 0.3
- Binding of serum SARS-green to looped/cyclic peptide (PEPSCAN-ELISA) [1]: 0.3
- Binding of serum SARS-yellow to looped/cyclic peptide (PEPSCAN-ELISA) [1]: 0.5
- Recognition of the peptide by sera of SARS-CoV infected individuals, and form (linear, looped/cyclic) in which it is recognized [1]: recognized in linear form
- Binding of Control Serum Blood-Bank to Looped peptides [2]: 0.6
- Binding of Control serum Blood-bank to linear peptides [2]: 0.9
- Binding of Control serum LUMC to linear peptides [2]: 0.7
- Binding of Control serum LUMC to looped peptides [2]: 0.7
- Binding of a rabbit serum to linear peptides [3]: 0.2
- Binding of a rabbit serum to looped peptides [3]: 0.7

Sequence: FLAWIMLLQFAYSNR
- Binding of serum 1a to linear peptides of protein M of SARS-CoV Urbani [1]: 0.7
- Binding of serum 1a to looped/cyclic peptides of protein M of SARS-CoV Urbani [1]: 0.8
- Binding of serum 1b to linear peptides of protein M of SARS-CoV Urbani [1]: 0.6
- Binding of serum 1b to looped/cyclic peptides of protein M of SARS-CoV Urbani [1]: 0.8
- Binding of serum 2 to linear peptides of protein M of SARS-CoV Urbani [1]: 0.5
- Binding of serum 2 to looped/cyclic peptides of protein M of SARS-CoV Urbani [1]: 0.6
- Binding of serum 6 to linear peptides of protein M of SARS-CoV Urbani [1]: 0.4
- Binding of serum 6 to looped/cyclic peptides of protein M of SARS-CoV Urbani [1]: 0.9
- Binding of serum 37 to linear peptides of protein M of SARS-CoV Urbani [1]: 0.4
- Binding of serum 37 to looped/cyclic peptides of protein M of SARS-CoV Urbani [1]: 0.7
- Binding of serum 62 to linear peptides of protein M of SARS-CoV Urbani [1]: 0.4
- Binding of serum 62 to looped/cyclic peptides of protein M of SARS-CoV Urbani [1]: 0.6
- Binding of serum London to linear peptides of protein M of SARS-CoV Urbani [1]: 0.4
- Binding of serum London to looped/cyclic peptides of protein M of SARS-CoV Urbani [1]: 0.7
- Binding of serum SARS-green to linear peptides of protein M of SARS-CoV Urbani [1]: 0.5
- Binding of serum SARS-green to looped/cyclic peptides of protein M of SARS-CoV Urbani [1]: 0.5
- Binding of serum SARS-yellow to linear peptides of protein M of SARS-CoV Urbani [1]: 0.2
- Binding of serum SARS-yellow to looped/cyclic peptides of protein M of SARS-CoV Urbani [1]: 0.7
- Binding of Control Serum Blood-Bank to Looped peptides of the protein M of SARS-CoV Urbani [2]: 0.8
- Binding of Control serum Blood-bank to linear peptides of the protein M of SARS-CoV Urbani [2]: 0.5
- Binding of Control serum LUMC to linear peptides of the protein M of SARS-CoV Urbani [2]: 0.5
- Binding of Control serum LUMC to looped peptides of the protein M of SARS-CoV Urbani [2]: 0.7
- Rabbit serum linear peptides [3]: 0.3
- Rabbit serum looped peptides [3]: 0.5
